Series [1] deals with HIV (NL43 virus) in P4CCR5luc cells. The experiment in a line: HIV screen: primary screening at 50 μM in P4CCR5luc cells (beta-gal readout). The format is cell-based. Conditions: Human immunodeficiency virus 1, NL43, P4 cells. Here is the method:
HIV screen: Primary Screening of PSI compounds are tested for antiviral HIV activity at 50 μM. The cells used are P4CCR5luc cells; they are human HIV indicator cells, which are derived from Hela cells, express CD4, CXCR4, CCR5, luciferase, and a beta-gal gene under the control of HIV-1 LTR. P4CCR5 luc cells are cultivated in DMEM, 10% FBS, Penicillin, Streptomycin, and G418 at 500 μg/ml. 100 μl of P4 CCR5-luc cells are plated at 10,000 cells per well in 96 well Opaque Assay plates and incubated overnight at 37° C. The next day, the media is aspirated from the plates and replaced by 100 μl of compound freshly diluted into media at 2×50 uM, in triplicate, for 4 hours at 37° C. The cells are then infected with 100 ul NL43 virus at 5 ng of p24 per well, in the presence of 2×20 ug/ml of DEAE-Dextran for 40-42 hours. Non infected, infected no drug and AZT controls are always present in triplicate on each plate. After infection the beta-gal is quantitated using the Galacto-Star kit from Applied Biosystems using the manufacturer instructions and the luminescence measured using a Victor apparatus from Perkin-Elmer. Results are represented as percentage inhibition compare to untreated cells. The assays are performed in 2 to 3 independent experiments.

Series [2] has as its system HIV (NL43 wild type virus) in P4 CCR5-luc cells. The experiment in a line: HIV titration to determine EC50 on P4 CCR5-luc cells. The note with it: Human immunodeficiency virus 1, NL43, read-out: HIV Inhibition P4 Cells EC50. Type of series: cell-based. On the procedure: HIV-Titration of PSI Activity to Determine EC50 on P4 CCR-luc Cells.
P4 CCR5-luc cells are plated at 10,000 cells per well (100 μl) in 96 well Opaque Assay plates and incubated overnight at 37° C. The next day, the media is aspirated from the plates and replaced by 100 ul of compound freshly diluted into appropriate media (DMEM, 10% FBS, G418 500 μg/ml, penicillin/streptomycin) at 2× final concentrations in 5 fold dilutions, usually from 2×100 μM to 2×0.032 uM, in triplicate, for 4 hours at 37° C. The cells are then infected with 100 ul NL43 wild type or mutant virus, at 5 ng to 20 ng of p24 per well, in the presence of 2×20 ug/ml of DEAE-Dextran, for 40-42 hours. Non infected and infected no drug controls are always present in 12plicate on each plate. An AZT control is tested in parallel for each experiment. After infection, the beta-gal is quantitated in the cell lysate using the Galacto-Star kit from Applied Biosystems and the luminescence measured using a Victor apparatus from Perkin-Elmer. The EC50 (Effective Concentration) is calculated using a Microsoft® Excel® spreadsheet that calculates the concentration necessary to inhibit the 50% of the infection. The assay is performed in at least 2 independent experiments.

Series [3] in a line: Toxicity, luciferase assay in P4 CCR5-luc cells. Type of series: cell-based. Conditions: human, read-out: Cytotoxicity CC50, P4 Cells. On the procedure: P4 CCR5-luc cells are plated at 10,000 cells per well (100 ul) in 96 well Opaque Assay plates and incubated overnight at 37° C. The next day, the media is aspirated from the plates and replaced by 200 ul of compound freshly diluted into media in 5 fold dilutions from 100 μM to 0.0062 μM. After 4 days of incubation at 37° C., the luciferase activity is measured in the cell lysate using the Bright Glow kit from Promega and the luminescence measured using a Victor apparatus from Perkin-Elmer.

A short description of series [4]: MTS cytotoxicity assay, CEM. The note with it: human, CEM (lymphoid) cells. The format is cell-based. Here is the method:
(§1) Human cells lines Huh 7 and HepG2 (liver), BxPC3 (pancreatic) and CEM (lymphoid) are used for the MTS assays in 96 wells plates. Drugs are freshly diluted in media at 2×100 μM, 50 μM, 25 μM, 10 μM, 5 μM, 1 μM and 50 μl is dispensed in triplicate in the plates. The wells at the periphery of the plate contain 100 ul of media only and will be the blank controls. A replicate control with no drug is always performed in each plate. 50 μl of cells are added to the plate, at 2000 cells per well for Huh 7, HepG2 and PxPC3, and 5000 cells per well for CEM cells. No cells are added at the periphery of the plate. The media used for Huh 7, HepG2 and BxPC3 cells is DMEM with 10% FBS, and Penicillin/streptomycin, and RPMI with 10% FBS, and Penicillin/streptomycin for CEM cells. After 8 days of incubation at 37° C., 20 μl of MTS dye from the CellTiter 96 Aqueous One Solution Cell Proliferation Assay kit from Promega is added to each well and the plate incubated for 2 h at 37° C. The absorbance is then read at 490 nm using the microplate reader E1800 from Biotek. The signal is calculated by subtracting the absorbance measured in the blank controls. The CC50 (Cytotoxic Concentration) value is then determined by comparing the signal obtained with the no-drug cell control with the treated cells and calculating the concentration of drug necessary to inhibit 50% of the signal in the wells treated with drugs.

The nature of series [5]: MTS cytotoxicity assay, HepG2. The note with it: human, HepG2 (liver) cells. The format is cell-based. On the procedure:
as §1

The next series relates to HCV S282T cells. Nature of the series: HCV inhibition in S282T cells. The format is cell-based. The note with it: Hepatitis C virus, read-out: HCV Inhibition S282T Cells EC90.
The subject of series [6] is HBV in HepG2-AD38 cell line. Nature of the series: HBV AD38 assay (HBV DNA in supernatant by real time PCR). Type of series: cell-based. Conditions: Hepatitis B virus; read-out: HBV Inhibition EC90. On the procedure: Biological Assays HBV AD38 Assay
The materials required for the assay comprise the following:
The HepG2-AD38 cell line.
The culture medium for HepG2-AD38 comprises DMEM-F/12, 10% fetal bovine serum, 100 IU/ml/100 ug/ml of Penicillin/streptomycin, 50 μg/ml kanamycin, 0.3 μg/ml tetracycline, and 200 μg/ml G418.
The assay medium for HepG2-AD38 comprises DMEM-F/12, 10% fetal bovine serum, 1001 U/ml/100 μg/ml of penicillin/streptomycin, 50 μg/ml kanamycin, and 200 μg/ml G418 Further materials comprise Phosphate buffered saline (PBS), Biocoated 96 well plates, DNeasy 96 tissue kit (Qiagen), QIAvac 96 vacuum manifold, Micro amp optical 96 well reaction plates (Applied Biosystems), Micro amp optical caps (Applied Biosystems), Tagman Universal PCR Master Mix (Applied Biosystems), and a 7700 Sequence detector (Applied Biosystems),
The primers and probes for HBV DNA comprise the 1125 nM forward primer (GGACCCCTGCTCGTGTTACA) (SEQ ID NO:1), the 1125 nM reverse primer (GAGAGAAGTCCACCACGAGTCTAGA) (SEQ ID NO:2), and the 250 nM probe (FAM-TGTTGACAAGAATCCTCACAATACCAC) (SEQ ID NO:3).
Seed 5×10^4 cells/well in 200 μl of culture medium in a 96 well biocoated plate and incubate the plate at 37° C. with 5% CO2. […]

A short description of another series: Cytotoxicity in PBMC. Type of series: cell-based.
Series [7] has as its system HCV replicon RNA in Huh 7 cells (clone A cells). The experiment in a line: HCV replicon assay, clone A cells (replicon RNA by RT-PCR). Type of series: cell-based. Here is the method:
(§2) HCV replicon RNA-containing Huh 7 cells (clone A cells; Apath, LLC, St. Louis, Mo.) were kept at exponential growth in Dulbecco's modified Eagle's medium (high glucose) containing 10% fetal bovine serum, 4 mM L-glutamine and 1 mM sodium pyruvate, 1× nonessential amino acids, and G418 (1,000iug/m1). Antiviral assays were performed in the same medium without G418. Cells were seeded in a 96-well plate at 1,500 cells per well, and test compounds were added immediately after seeding. Incubation time 4 days. At the end of the incubation step, total cellular RNA was isolated (RNeasy 96 kit; Qiagen). Replicon RNA and an internal control (TaqMan rRNA control reagents; Applied Biosystems) were amplified in a single-step multiplex RT-PCR protocol as recommended by the manufacturer. The HCV primers and probe were designed with Primer Express software (Applied Biosystems) and covered highly conserved 5′-untranslated region (UTR) sequences (sense primer: • 5′-AGCCATGGCGTTAGTA(T)GAGTGT-3′ (SEQ ID NO:4); antisense primer: • 5′-TTCCGCAGACCACTATGG-3′ (SEQ ID NO:5); and probe: • 5′-FAM-[…]-TAMRA-3′ (SEQ ID NO:6)).
(§3) To express the antiviral effectiveness of a compound, the threshold RT-PCR cycle of the test compound was subtracted from the average threshold RT-PCR cycle of the no-drug control (ΔCtHCV). […]

Series [8] in a line: MTS cytotoxicity assay, Huh 7. The format is cell-based. Conditions: human, Huh 7 (liver) cells. On the procedure: as §1
The subject of series [9] is rRNA of Huh 7 clone A cells. Nature of the series: HCV replicon assay, rRNA internal control (cytotoxicity, ΔCt rRNA). The format is cell-based, human. On the procedure: as §2, §3
Series [10] in a line: MTS cytotoxicity assay, BxPC3. The format is cell-based. Conditions: human, BxPC3 (pancreatic) cells. On the procedure: as §1

The values below come from patent publication US8765710B2, “2′,4′-substituted nucleosides as antiviral agents” (Gilead Pharmasset LLC, priority 2007, dated 2014).

pEC50: −log10 of the molar value.

The molecule `C[C@@H]1[C@H](n2ccc(N)nc2=O)O[C@@](CO)(N=[N+]=[N-])[C@H]1O` showed an inhibition at 50 µM in [1] of 100%. Also, the pEC50 in [2] was 6.74. Also, the CC50 at 4 days in series [3] was over 100 µM. Moreover, the 50% cytotoxic concentration (CC50) at 8 days in series [4] is 400 µM; in series [5], 300 µM; in series [8], over 100 µM; in series [10], 400 µM. Besides, the EC90 in the series on HCV S282T cells came to 73.1 µM; in [6], 1.62 µM; in [7] (Hepatitis C virus, Huh-7, read-out: HCV Inhibition Clone A cells EC90), 7.85 µM. The molecule also showed a half-maximal cytotoxic concentration (CC50) in “Cytotoxicity in PBMC” of over 100 µM. Further, in series [7] (50 μM, clone A cells, HCV RNA), the “Screen HCV Clone A Cells −log10 at 50 μM (HCV)” value was −1.4 log10. In addition, the “Screen HCV Clone A Cells −log10 at 50 μM (Rbz)” value in series [9] is recorded as −0.59 log10.
